What follows are compounds tested against T1, CDK9/CyclinT1 (Homo sapiens, UniProt P50750) (assay: CDK9/T1 ADPGlo kinase assay for inhibitory activity). Details: CDK9/CyclinT1 6 nM, PDKtide 40 microM, ATP 10 microM, 120 min at RT, luminescence readout.
T1 construct: purchased ProQinase/Reaction Biology, USA 0371-0345-1
Assay type: biochemical
Protocol: The testing compound was evaluated in 12 concentrations in a 1:3 dilution series, starting from 5 microM as the highest concentration.
In a white 384 microplate (Greiner bio-one, Austria #784904,) with 2 microL of 3-fold concentrated CDK9/CyclinT1 (ProQinase/Reaction Biology, USA #0371-0345-1, LOT.: 012), final concentration (f.c.) 6 nM, in 1× kinase buffer, 2 microL of compound (3× fold concentrated in f.c. 1.66% DMSO/H2O) was added and incubated at Room Temperature (RT) for 10 min. Then 2 microL of Substrate/ATP-Mix (3× PDKtide f.c. 40 microM, SignalChem Biotech, Canada via Biozol, Eching, Germany #P10-58, LOT.: L2230-7 and 3× UltraPure ATP f.c. 10 microM (ADP Glo Kinase assay, Promega GmbH, Germany #V9102)) were added, mixed and incubated for 120 min at RT.
After incubation time, 5 microL of ADP Glo reagent (ready to use, ADP Glo Kinase assay, Promega GmbH, Germany #V9102) were added, mixed and incubated for 40 min at RT. In the last step, 10 microL of ADP Glo Detection reagent (ready to use, ADP Glo Kinase assay, Promega GmbH, Germany #V9102) were added, mixed and incubated for 30 min at RT. GloMax Discover GM3000 Reader (Promega GmbH, Germany 9700000249) was used for the readout.
The inhibitor concentration was plotted against the luminescence to determine the IC50 using XLFit 5.5 (IDBS, Guildford) to fit to a sigmoidal dose response curve with a variable slope.

T1 sequence (P50750 whole entry): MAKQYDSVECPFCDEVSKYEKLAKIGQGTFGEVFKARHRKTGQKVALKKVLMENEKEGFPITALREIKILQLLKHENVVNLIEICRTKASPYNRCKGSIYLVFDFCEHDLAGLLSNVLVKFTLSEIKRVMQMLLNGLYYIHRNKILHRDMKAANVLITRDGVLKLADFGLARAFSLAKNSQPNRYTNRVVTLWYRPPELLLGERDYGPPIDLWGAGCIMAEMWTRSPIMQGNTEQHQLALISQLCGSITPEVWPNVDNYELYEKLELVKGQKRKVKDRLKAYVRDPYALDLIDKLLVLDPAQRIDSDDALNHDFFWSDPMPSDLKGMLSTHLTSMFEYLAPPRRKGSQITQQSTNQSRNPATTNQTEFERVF
T1 sequence (O60563 whole entry partner): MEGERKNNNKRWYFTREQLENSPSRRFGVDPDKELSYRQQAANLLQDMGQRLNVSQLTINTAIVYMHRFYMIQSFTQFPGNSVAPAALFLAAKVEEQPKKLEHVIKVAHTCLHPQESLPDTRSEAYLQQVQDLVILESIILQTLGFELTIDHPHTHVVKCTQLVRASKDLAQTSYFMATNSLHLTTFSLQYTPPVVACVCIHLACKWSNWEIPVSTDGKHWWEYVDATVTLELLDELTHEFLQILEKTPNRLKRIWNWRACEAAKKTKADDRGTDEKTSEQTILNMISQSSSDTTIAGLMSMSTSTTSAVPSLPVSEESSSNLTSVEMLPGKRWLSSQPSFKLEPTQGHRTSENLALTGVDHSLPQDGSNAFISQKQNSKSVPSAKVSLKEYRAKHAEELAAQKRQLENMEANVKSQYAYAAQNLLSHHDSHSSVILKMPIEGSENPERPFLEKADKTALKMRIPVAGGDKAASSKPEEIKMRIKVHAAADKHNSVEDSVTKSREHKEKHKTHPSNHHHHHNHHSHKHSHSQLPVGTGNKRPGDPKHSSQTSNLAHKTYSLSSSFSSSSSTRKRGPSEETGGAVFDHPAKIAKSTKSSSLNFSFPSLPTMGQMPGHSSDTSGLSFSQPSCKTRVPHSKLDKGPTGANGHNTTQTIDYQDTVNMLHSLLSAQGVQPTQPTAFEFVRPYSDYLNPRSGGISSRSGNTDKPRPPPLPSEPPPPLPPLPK

Compound | IC50
Fc1cccc(F)c1-c1nc(N[C@H]2CC[C@H](N3CCOCC3)CC2)c2ncc(Cl)n2n1 [Example #1, 7-chloro-2-(2,6-difluorophenyl)-N-((1r,4r)-4-morpholinocyclohexyl)imidazo[2,1-f][1,2,4]triazin-4-amine] | < 20 nM
CN(C)[C@H]1CC[C@H](Nc2nc(-c3c(F)cccc3F)nn3c(Cl)cnc23)CC1 [Example #3, (1r,4r)-N1-(7-chloro-2-(2,6-difluorophenyl)imidazo[2,1-f][1,2,4]triazin-4-yl)-N4,N4-dimethylcyclohexane-1,4-diamine] | < 20 nM
N[C@H]1CC[C@H](Nc2nc(-c3c(F)cccc3F)nn3c(Cl)cnc23)CC1 [Example #4, (1r,4r)-N1-(7-chloro-2-(2,6-difluorophenyl)imidazo[2,1-f][1,2,4]triazin-4-yl)cyclohexane-1,4-diamine] | < 20 nM
Fc1cccc(F)c1-c1nc(N[C@H]2CC[C@H](N3CCCCC3)CC2)c2ncc(Cl)n2n1 [Example #5, 7-chloro-2-(2,6-difluorophenyl)-N-((1r,4r)-4-(piperidin-1-yl)cyclohexyl)imidazo[2,1-f][1,2,4]triazin-4-amine] | < 20 nM
Fc1cccc(F)c1-c1nc(N[C@H]2CC[C@H](N3CCCC3)CC2)c2ncc(Cl)n2n1 [Example #6, 7-chloro-2-(2,6-difluorophenyl)-N-((1r,4r)-4-(pyrrolidin-1-yl)cyclohexyl)imidazo[2,1-f][1,2,4]triazin-4-amine] | < 20 nM
COCCN[C@H]1CC[C@H](Nc2nc(-c3c(F)cccc3F)nn3c(Cl)cnc23)CC1 [Example #7, (1r,4r)-N1-(7-chloro-2-(2,6-difluorophenyl)imidazo[2,1-f][1,2,4]triazin-4-yl)-N4-(2-methoxyethyl)cyclohexane-1,4-diamine] | < 20 nM
FCCN[C@H]1CC[C@H](Nc2nc(-c3c(F)cccc3F)nn3c(Cl)cnc23)CC1 [Example #8, (1r,4r)-N1-(7-chloro-2-(2,6-difluorophenyl)imidazo[2,1-f][1,2,4]triazin-4-yl)-N4-(2-fluoroethyl)cyclohexane-1,4-diamine] | < 20 nM
FCCCN[C@H]1CC[C@H](Nc2nc(-c3c(F)cccc3F)nn3c(Cl)cnc23)CC1 [Example #9, (1r,4r)-N1-(7-chloro-2-(2,6-difluorophenyl)imidazo[2,1-f][1,2,4]triazin-4-yl)-N4-(3-fluoropropyl)cyclohexane-1,4-diamine] | < 20 nM
CC(C)N1CCC(Nc2nc(-c3c(F)cccc3F)nn3c(Cl)cnc23)CC1 [Example #10, 7-chloro-2-(2,6-difluorophenyl)-N-(1-isopropylpiperidin-4-yl)imidazo[2,1-f][1,2,4]triazin-4-amine] | < 200 nM
Fc1cccc(F)c1-c1nc(NC2CCN(C3CCOCC3)CC2)c2ncc(Cl)n2n1 [Example #11, 7-chloro-2-(2,6-difluorophenyl)-N-(1-(tetrahydro-2H-pyran-4-yl)piperidin-4-yl)imidazo[2,1-f][1,2,4]triazin-4-amine] | < 200 nM
Fc1cccc(F)c1-c1nc(NC2CCN(C3CCCC3)CC2)c2ncc(Cl)n2n1 [Example #12, 7-chloro-N-(1-cyclopentylpiperidin-4-yl)-2-(2,6-difluorophenyl)imidazo[2,1-f][1,2,4]triazin-4-amine] | < 200 nM
CN1CCC(Nc2nc(-c3c(F)cccc3F)nn3c(Cl)cnc23)CC1 [Example #13, 7-chloro-2-(2,6-difluorophenyl)-N-(1-methylpiperidin-4-yl)imidazo[2,1-f][1,2,4]triazin-4-amine] | < 20 nM
CN1CCCCC1CNc1nc(-c2c(F)cccc2F)nn2c(Cl)cnc12 (stereo not shown) [Example #14, [7-Chloro-2-(2,6-difluoro-phenyl)-imidazo[2,1-f][1,2,4]triazin-4-yl]-(1-methyl-piperidin-2-ylmethyl)-amine] | < 200 nM
CCN1CCCC1CNc1nc(-c2c(F)cccc2F)nn2c(Cl)cnc12 (stereo not shown) [Example #15, 7-chloro-2-(2,6-difluorophenyl)-N-((1-ethylpyrrolidin-2-yl)methyl)imidazo[2,1-f][1,2,4]triazin-4-amine] | < 200 nM
Fc1cccc(F)c1-c1nc(NC2CCNCC2)c2ncc(Cl)n2n1 [Example #16, [7-Chloro-2-(2,6-difluoro-phenyl)-imidazo[2,1-f][1,2,4]triazin-4-yl]-piperidin-4-yl-amine] | < 20 nM
CN1CCC(CNc2nc(-c3c(F)cccc3F)nn3c(Cl)cnc23)CC1 [Example #17, [7-Chloro-2-(2,6-difluoro-phenyl)-imidazo[2,1-f][1,2,4]triazin-4-yl]-(1-methyl-piperidin-4-ylmethyl)-amine] | < 20 nM
Fc1cccc(F)c1-c1nc(NC2CN3CCC2CC3)c2ncc(Cl)n2n1 (stereo not shown) [Example #18, (1-Aza-bicyclo[2.2.2]oct-3-yl)-[7-chloro-2-(2,6-difluoro-phenyl)-imidazo[2,1-f][1,2,4]triazin-4-yl]-amine] | < 200 nM
Fc1cccc(F)c1-c1nc(NCCN2CCOCC2)c2ncc(Cl)n2n1 [Example #19, [7-Chloro-2-(2,6-difluoro-phenyl)-imidazo[2,1-f][1,2,4]triazin-4-yl]-(2-morpholin-4-yl-ethyl)-amine] | < 200 nM
CC(C)(C)OC(=O)N1CCCC(CNc2nc(-c3c(F)cccc3F)nn3c(Cl)cnc23)C1 (stereo not shown) [Example #20, tert-butyl 3-(((7-chloro-2-(2,6-difluorophenyl)imidazo[2,1-f][1,2,4]triazin-4-yl)amino)methyl)piperidine-1-carboxylate] | < 200 nM
Fc1cccc(F)c1-c1nc(NCC2CCNCC2)c2ncc(Cl)n2n1 [Example #21, 7-chloro-2-(2,6-difluorophenyl)-N-(piperidin-4-ylmethyl)imidazo[2,1-f][1,2,4]triazin-4-amine] | < 200 nM
Fc1cccc(F)c1-c1nc(NCC2CCCNC2)c2ncc(Cl)n2n1 (stereo not shown) [Example #22, 7-chloro-2-(2,6-difluorophenyl)-N-(piperidin-3-ylmethyl)imidazo[2,1-f][1,2,4]triazin-4-amine] | < 200 nM
NC1CCC(Nc2nc(-c3c(F)cccc3F)nn3c(Cl)cnc23)C1 (stereo not shown) [Example #24, N1-(7-chloro-2-(2,6-difluorophenyl)imidazo[2,1-f][1,2,4]triazin-4-yl)cyclopentane-1,3-diamine] | < 20 nM
Fc1cccc(Cl)c1-c1nc(N[C@H]2CC[C@H](N3CCOCC3)CC2)c2ncc(Cl)n2n1 [Example #27, 7-chloro-2-(2-chloro-6-fluorophenyl)-N-((1r,4r)-4-morpholinocyclohexyl)imidazo[2,1-f][1,2,4]triazin-4-amine] | < 20 nM
Clc1cccc(Cl)c1-c1nc(N[C@H]2CC[C@H](N3CCOCC3)CC2)c2ncc(Cl)n2n1 [Example #28, 7-chloro-2-(2,6-dichlorophenyl)-N-((1r,4r)-4-morpholinocyclohexyl)imidazo[2,1-f][1,2,4]triazin-4-amine] | < 20 nM
OCCN[C@H]1CC[C@H](Nc2nc(-c3c(F)cccc3F)nn3c(Cl)cnc23)CC1 [Example #32, 2-(((1r,4r)-4-((7-chloro-2-(2,6-difluorophenyl)imidazo[2,1-f][1,2,4]triazin-4-yl)amino)cyclohexyl)amino)ethan-1-ol] | < 20 nM
Fc1cccc(F)c1-c1nc(NCc2cccnc2)c2ncc(Cl)n2n1 [Example #36, 7-chloro-2-(2,6-difluorophenyl)-N-(pyridin-3-ylmethyl)imidazo[2,1-f][1,2,4]triazin-4-amine] | < 200 nM
Cc1cc(C)c(CNc2nc(-c3c(F)cccc3F)nn3c(Cl)cnc23)cn1 [Example #37, 7-chloro-2-(2,6-difluorophenyl)-N-((4,6-dimethylpyridin-3-yl)methyl)imidazo[2,1-f][1,2,4]triazin-4-amine] | < 200 nM
CN1CCN([C@H]2CC[C@H](Nc3nc(-c4c(F)cccc4F)nn4c(Cl)cnc34)CC2)CC1 [Example #38, 7-chloro-2-(2,6-difluorophenyl)-N-((1r,4r)-4-(4-methylpiperazin-1-yl)cyclohexyl)imidazo[2,1-f][1,2,4]triazin-4-amine] | < 20 nM

Reference: patent publication US20250144105A1, “CDK9 INHIBITORS” (Origenis GmbH, priority 2022, published 2025)
